Some test systems named below: A498 renal; EKVX NSCLC; HCC-2998 colon; LOX IMVI melanoma; SK-MEL-2 melanoma; SNB-19 CNS; U251 CNS; UACC-257 melanoma; HOP-92 NSCLC; OVCAR-3 ovarian.
Experiment in all cases: NCI anticancer screen, dose series, 48 h

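Protocol summary: plate cells (96-well), add compound at 5 concentrations, incubate 48 h, interpolate endpoints linearly. The concentration for 50% growth inhibition is given as GI50. TGI denotes the concentration required for complete inhibition of growth.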

For the compound `O=[n+]1cnn([O-])c2ccccc21`, the TGI in the assay with A498 renal was more than 100 µM; in the assay on EKVX NSCLC it was 91.7 µM; in the assay on HCC-2998 colon, more than 100 µM; in the assay with LOX IMVI melanoma it was more than 100 µM; with SK-MEL-2 melanoma, 96.2 µM; with SNB-19 CNS, more than 100 µM. Besides, the values for the TGI in the assay with U251 CNS and in the assay with UACC-257 melanoma were more than 100 µM and 37.1 µM, respectively.

As for `C[C@H]1O[C@@H](O[C@H]2[C@@H](O)C[C@H](O[C@H]3[C@@H](O)C[C@H](O[C@H]4CC[C@]5(C)C6C[C@@H](O)[C@]7(C)[C@@H](C8=CC(=O)OC8)CC[C@]7(O)C6CC[C@@H]5C4)O[C@@H]3C)O[C@@H]2C)C[C@H](O)[C@@H]1O` (stereo partly specified), the GI50 is 0.0377 µM with EKVX NSCLC; 0.147 µM in the assay on HCC-2998 colon; 0.112 µM in the assay on HOP-92 NSCLC; 0.06 µM in the assay on LOX IMVI melanoma; 0.0241 µM in the assay with OVCAR-3 ovarian; 0.121 µM in the assay on SK-MEL-2 melanoma. Also, the GI50 in the assay with SNB-19 CNS is 0.175 µM; in the assay with U251 CNS it was 0.0668 µM; with UACC-257 melanoma it was 0.101 µM. Also, the TGI turned out to be 0.124 µM in the assay with EKVX NSCLC; 0.486 µM with HCC-2998 colon; 0.529 µM in the assay on HOP-92 NSCLC; 0.141 µM with LOX IMVI melanoma; 0.0792 µM in the assay with OVCAR-3 ovarian; 0.328 µM with SK-MEL-2 melanoma. The TGI in the assay on SNB-19 CNS was found to be 0.678 µM; with U251 CNS it was 0.145 µM; in the assay on UACC-257 melanoma, 0.237 µM.

For the compound `CC1=C(C)C(=O)c2c(cc3c4ccccc4ccn23)C1=O`, the TGI in the assay with EKVX NSCLC, in the assay on LOX IMVI melanoma, with OVCAR-3 ovarian, with SK-MEL-2 melanoma, with SNB-19 CNS and in the assay on U251 CNS was more than 100 µM each time. Moreover, the TGI with UACC-257 melanoma is more than 100 µM.

`Nc1ccn(C2OC(CO[P+](=O)OC3C(CO[P+](=O)OC4C(CO[P+](=O)OC5C(CO[P+](=O)OC6C(CO[P+](=O)OC7C(CO[P+](=O)OC8C(CO[P+](=O)OC9C(CO[P+](=O)OC%10C(CO[P+](=O)OC%11C(CO)OC(n%12ccc(N)nc%12=O)C%11(F)F)OC(n%11ccc(N)nc%11=O)C%10(F)F)OC(n%10ccc(N)nc%10=O)C9(F)F)OC(n9ccc(N)nc9=O)C8(F)F)OC(n8ccc(N)nc8=O)C7(F)F)OC(n7ccc(N)nc7=O)C6(F)F)OC(n6ccc(N)nc6=O)C5(F)F)OC(n5ccc(N)nc5=O)C4(F)F)OC(n4ccc(N)nc4=O)C3(F)F)C(O)C2(F)F)c(=O)n1` (stereo unspecified): the TGI with A498 renal, with EKVX NSCLC, in the assay on HCC-2998 colon, with LOX IMVI melanoma, with OVCAR-3 ovarian and in the assay on SNB-19 CNS was more than 100 µM in each case. The TGI in the assay on U251 CNS was more than 100 µM. Also, the GI50 with EKVX NSCLC was more than 100 µM; with HCC-2998 colon, 0.339 µM; in the assay on SK-MEL-2 melanoma it was 35 µM; in the assay on UACC-257 melanoma it was 0.859 µM.

In the case of `CC(=O)c1cc2c3c(c1)c1cc4c(cc1c(=O)n3CC2)OCO4`, the TGI in the assay with EKVX NSCLC, in the assay with HCC-2998 colon, with HOP-92 NSCLC, with LOX IMVI melanoma, in the assay with OVCAR-3 ovarian and in the assay on SK-MEL-2 melanoma was more than 100 µM each time. Moreover, the TGI in the assay with SNB-19 CNS, with U251 CNS and in the assay with UACC-257 melanoma was more than 100 µM each time.

As for `N#CC(NC12CC3CC(CC(C3)C1)C2)c1ccccc1` (stereo unspecified), the TGI in the assay with EKVX NSCLC, in the assay on HCC-2998 colon, with HOP-92 NSCLC, in the assay on LOX IMVI melanoma, in the assay with OVCAR-3 ovarian and with SK-MEL-2 melanoma was more than 100 µM each time. The TGI in the assay with SNB-19 CNS, with U251 CNS and in the assay with UACC-257 melanoma was more than 100 µM in each case.

Regarding `C[CH2][Sn]1([CH2]C)[O]C2C(O)OC(CO)C(O)C2[O]1` (stereo unspecified), the GI50 with A498 renal is 18.9 µM; in the assay on HOP-92 NSCLC, 20 µM; in the assay on OVCAR-3 ovarian it was more than 100 µM; with SK-MEL-2 melanoma, 35.5 µM; in the assay with SNB-19 CNS it was 50.5 µM; in the assay with U251 CNS, 17.9 µM. Moreover, the GI50 in the assay with UACC-257 melanoma is 14.4 µM. The TGI with A498 renal is 42 µM; in the assay with HOP-92 NSCLC, 47 µM; in the assay with OVCAR-3 ovarian, more than 100 µM; with SK-MEL-2 melanoma, more than 100 µM; in the assay with SNB-19 CNS, more than 100 µM; in the assay with U251 CNS it was 36.9 µM. Further, the TGI in the assay on UACC-257 melanoma worked out at 31.8 µM.

For `CCOC(=O)CC(=O)N(c1ccc(OC)cc1)C(C(=O)OC)c1ccccc1` (stereo unspecified), the TGI with EKVX NSCLC, in the assay with LOX IMVI melanoma, with OVCAR-3 ovarian, in the assay on SK-MEL-2 melanoma, in the assay on SNB-19 CNS and in the assay with UACC-257 melanoma was more than 100 µM each time.

As for `COc1ccc(C2Cc3cc(OC)c(OC)c(OC)c3C2=O)cc1` (stereo unspecified), the TGI in the assay on A498 renal, with EKVX NSCLC, with HCC-2998 colon, with LOX IMVI melanoma, with OVCAR-3 ovarian and in the assay on SK-MEL-2 melanoma was more than 100 µM in each case. Also, the TGI with SNB-19 CNS, in the assay on U251 CNS and in the assay on UACC-257 melanoma was more than 100 µM throughout.

`CC(=O)NC(ON1C(=O)COc2ccccc21)C(Cl)(Cl)Cl` (stereo unspecified): the TGI in the assay with HCC-2998 colon, in the assay with HOP-92 NSCLC, in the assay on LOX IMVI melanoma, with OVCAR-3 ovarian, in the assay on SK-MEL-2 melanoma and with SNB-19 CNS was more than 100 µM each time. The TGI in the assay with U251 CNS and with UACC-257 melanoma was more than 100 µM throughout.

For the compound `N#Cc1cc(-c2ccccc2)[nH]c1-c1nccc2ccccc12`, the GI50 in the assay with A498 renal is 26.3 µM; with EKVX NSCLC, 5.86 µM; in the assay with HCC-2998 colon, 18.9 µM; in the assay on LOX IMVI melanoma, 15.6 µM; with OVCAR-3 ovarian, 21.9 µM; in the assay on SK-MEL-2 melanoma it was 11.9 µM. The GI50 in the assay on SNB-19 CNS is 31.3 µM; with U251 CNS, 25.1 µM; in the assay with UACC-257 melanoma, 7.81 µM. In addition, the TGI in the assay on A498 renal was more than 100 µM; in the assay on EKVX NSCLC, more than 100 µM; with HCC-2998 colon, more than 100 µM; in the assay with LOX IMVI melanoma, more than 100 µM; in the assay on OVCAR-3 ovarian, more than 100 µM; in the assay on SK-MEL-2 melanoma it was 81 µM. In addition, the TGI in the assay with SNB-19 CNS was more than 100 µM; in the assay on U251 CNS, more than 100 µM; with UACC-257 melanoma, 60.1 µM.

Consider `NC1=NN(c2ccccc2)C(=O)C1C(=O)C(=O)NC1C2CC3CC(C2)CC1C3` (stereo unspecified), for which the TGI in the assay with EKVX NSCLC, in the assay with HCC-2998 colon, in the assay on HOP-92 NSCLC, in the assay on LOX IMVI melanoma, in the assay on OVCAR-3 ovarian and in the assay with SK-MEL-2 melanoma was more than 100 µM each time. Besides, the TGI in the assay on SNB-19 CNS, with U251 CNS and with UACC-257 melanoma was more than 100 µM in each case.

Values taken from PubChem BioAssay (NCI).
